pIC50: −log10 of the molar value.
Tests used:
[1] = biological target: T1, Avi-KRAS G12D (2-169) GTP/RAF1 RBD-3xFLAG (51-131) (Homo sapiens, UniProt P01116, G12D); assay: Raf1-KRAS G12D-GTP disruption HTRF assay (Biological Example 3); type: binding; conditions: KRAS G12D, GTP-loaded
T1 construct: Avi-KRAS G12D (2-169)
Procedure, shortened: (§1)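 Compounds were titrated 10-point, 3-fold from 30 μM against preformed KRAS-GTP:RAF1 RBD (51-131) complexes at 50 nM, using KRAS 2-169 as WT, G12C, G12D or G12V. After 1 h at room temperature in Tris pH 7.5 buffer with MgCl2 and 10% DMSO, time-resolved fluorescence was read. Results are percent activity versus DMSO.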

GP2d cells (KRAS G12D) = assay: Cell-based pERK HTRF assay in GP2d cell (Biological Example 2); conditions: GP2d (KRAS G12D) cells
Procedure, shortened: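 GP2d (KRAS G12D) cells were plated in DMEM/10% FBS and treated the next day for 60 min with compounds. Dosing used 9-point half-log series starting at 1 μM or 100 nM in 0.25% DMSO. Lysates were read by HTRF pERK (d2/Eu cryptate antibodies) after 4–24 h at room temperature, with excitation at 320 nm and emission at 615 nm.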

[2] = biological target: T2, Avi-KRAS G12V (2-169) GTP/RAF1 RBD-3xFLAG (51-131) (Homo sapiens, UniProt P01116, G12V); assay: Raf1-KRAS G12V-GTP disruption HTRF assay (Biological Example 3); type: binding; conditions: KRAS G12V, GTP-loaded
T2 construct: Avi-KRAS G12V (2-169)
T2 sequence (P01116 2-169 isoform P01116-2 G12V): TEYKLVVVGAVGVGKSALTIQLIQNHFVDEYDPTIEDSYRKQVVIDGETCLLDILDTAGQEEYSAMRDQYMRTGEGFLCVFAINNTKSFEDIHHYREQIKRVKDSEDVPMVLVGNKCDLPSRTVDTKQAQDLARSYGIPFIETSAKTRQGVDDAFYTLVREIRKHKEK
Procedure, shortened: as §1

[3] = biological target: T3, Avi-KRAS WT (2-169) GTP/RAF1 RBD-3xFLAG (51-131) (Homo sapiens, UniProt P01116); assay: Raf1-KRAS WT-GTP disruption HTRF assay (Biological Example 3); type: binding; conditions: KRAS WT, GTP-loaded
T3 construct: Avi-KRAS WT (2-169)
T3 sequence (P01116 2-169 isoform P01116-2): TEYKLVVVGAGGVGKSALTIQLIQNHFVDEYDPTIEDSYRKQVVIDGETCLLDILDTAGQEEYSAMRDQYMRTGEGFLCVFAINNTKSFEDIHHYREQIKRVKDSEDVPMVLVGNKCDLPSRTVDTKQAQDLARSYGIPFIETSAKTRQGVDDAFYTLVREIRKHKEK
Procedure, shortened: as §1

SW620 cells (KRAS G12V) = assay: Cell-based pERK HTRF assay in SW620 cell (Biological Example 4)
Procedure, shortened: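 This assay measures inhibition of ERK phosphorylation downstream of KRAS G12V in intact SW620 cells. Compounds are applied for 4 h over nine half-log concentrations starting at 1 μM, and pERK is quantified by HTRF.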

[4] = biological target: T4, Avi-KRAS G12C (2-169) GTP/RAF1 RBD-3xFLAG (51-131) (Homo sapiens, UniProt P01116, G12C); assay: Raf1-KRAS G12C-GTP disruption HTRF assay (Biological Example 3); type: binding; conditions: KRAS G12C, GTP-loaded
T4 construct: Avi-KRAS G12C (2-169)
T4 sequence (P01116 2-169 isoform P01116-2 G12C): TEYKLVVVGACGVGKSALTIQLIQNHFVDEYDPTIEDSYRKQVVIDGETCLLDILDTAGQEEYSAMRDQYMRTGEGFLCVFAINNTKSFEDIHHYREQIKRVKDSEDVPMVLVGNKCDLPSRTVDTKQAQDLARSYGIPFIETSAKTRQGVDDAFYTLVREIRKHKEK
Procedure, shortened: as §1

[5] = Homo sapiens, SW-620, SW620 (KRAS G12V) cells

T1 sequence (P01116 2-169 isoform P01116-2 G12D): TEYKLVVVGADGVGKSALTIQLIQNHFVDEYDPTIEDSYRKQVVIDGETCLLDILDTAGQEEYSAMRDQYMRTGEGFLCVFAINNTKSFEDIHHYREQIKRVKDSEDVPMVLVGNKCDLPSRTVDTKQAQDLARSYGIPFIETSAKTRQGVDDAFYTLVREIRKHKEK

SMILES | pIC50 [1] | pIC50 (GP2d cells (KRAS G12D); GP2d) | pIC50 [2] | pIC50 [3] | pIC50 (SW620 cells (KRAS G12V); [5]) | pIC50 [4] | pIC50 (GP2d cells (KRAS G12D)) | pIC50 (SW620 cells (KRAS G12V); SW620 (KRAS G12V) cells)
CN(Cc1ncco1)c1nc(OC[C@@]23CCCN2C[C@H](F)C3)nc2c(F)c(-c3ccc(F)c4sc(N)c(C#N)c34)c(C(F)(F)F)cc12 (atropisomer, axis not shown) [Compound 885] | 6.00 to 7.00 | > 7.00 | 6.00 to 7.00 | 5.00 to 6.00 | > 7.00 | 6.00 to 7.00 | – | –
CCN(c1nc(OC[C@@]23CCCN2C[C@H](F)C3)nc2c(F)c(-c3ccc(F)c4sc(N)c(C#N)c34)c(C(F)(F)F)cc12)[C@H]1CCN(C(=O)c2ncc(C#N)s2)C1 (atropisomer, axis not shown) [Compound 956] | 6.00 to 7.00 | > 7.00 | 6.00 to 7.00 | 5.00 to 6.00 | > 7.00 | 6.00 to 7.00 | – | –
CCN(c1nc(OC[C@@]23CCCN2C[C@H](F)C3)nc2c(F)c(-c3ccc(F)c4sc(N)c(C#N)c34)c(C(F)(F)F)cc12)[C@H]1CCN(C(=O)[C@@H]2CCO2)[C@@H]1C (atropisomer, axis not shown) [Compound 918] | ≥ 7.00 | > 7.00 | ≥ 7.00 | ≥ 7.00 | > 7.00 | ≥ 7.00 | – | –
[2H][C@]1(N(CC)c2nc(OC[C@@]34CCCN3C[C@H](F)C4)nc3c(F)c(-c4ccc(F)c5sc(N)c(C#N)c45)c(C(F)(F)F)cc23)CCN(C(=O)C(C)C)C1 (atropisomer, axis not shown) [Compound 860] | 6.00 to 7.00 | > 7.00 | 6.00 to 7.00 | 6.00 to 7.00 | > 7.00 | 6.00 to 7.00 | – | –
CCN(c1nc(OC[C@@]23CCCN2C[C@H](F)C3)nc2c(F)c(-c3ccc(F)c4sc(N)c(C#N)c34)c(C(F)(F)F)cc12)[C@H]1CCN(c2ccccn2)C1 [Compound 948] | 5.00 to 6.00 | > 7.00 | < 5.00 | < 5.00 | > 7.00 | 5.00 to 6.00 | – | –
CN(Cc1ccncc1)c1nc(OC[C@@]23CCCN2C[C@H](F)C3)nc2c(F)c(-c3ccc(F)c4sc(N)c(C#N)c34)c(C(F)(F)F)cc12 (atropisomer, axis not shown) [Compound 867] | 5.00 to 6.00 | > 7.00 | 5.00 to 6.00 | 5.00 to 6.00 | > 7.00 | 5.00 to 6.00 | – | –
CN(Cc1ccccc1)c1nc(OC[C@@]23CCCN2C[C@H](F)C3)nc2c(F)c(-c3ccc(F)c4sc(N)c(C#N)c34)c(C(F)(F)F)cc12 (atropisomer, axis not shown) [Compound 890] | < 5.00 | 6.00 to 7.00 | < 5.00 | < 5.00 | 6.00 to 7.00 | < 5.00 | – | –
CCN(c1nc(OC[C@@]23CCCN2C[C@H](F)C3)nc2c(F)c(-c3ccc(F)c4sc(N)c(C#N)c34)c(C(F)(F)F)cc12)[C@H]1C[C@H](COC)N(C(=O)N2CC(OC)C2)C1 (atropisomer, axis not shown) [Compound 839] | 6.00 to 7.00 | > 7.00 | 6.00 to 7.00 | 6.00 to 7.00 | > 7.00 | 6.00 to 7.00 | – | –
CCN(c1nc(OC[C@@]23CCCN2C[C@H](F)C3)nc2c(F)c(-c3ccc(F)c4sc(N)c(C#N)c34)c(C(F)(F)F)cc12)[C@H]1CCN(C(=O)N2CC3C(C2)C3(C)C)C1 (stereo partly drawn) [Compound 817] | 6.00 to 7.00 | > 7.00 | 6.00 to 7.00 | 5.00 to 6.00 | > 7.00 | 6.00 to 7.00 | – | –
CN(c1nc(OCC23CCCN2CC(F)C3)nc2c(F)c(-c3ccc(F)c4sc(N)c(C#N)c34)c(C(F)(F)F)cc12)C1CCc2ccncc21 (stereo not drawn) [Compound 962] | 5.00 to 6.00 | – | < 5.00 | 5.00 to 6.00 | – | < 5.00 | > 7.00 | > 7.00
CCN(Cc1cccnc1)c1nc(OC[C@@]23CCCN2C[C@H](F)C3)nc2c(F)c(-c3ccc(F)c4sc(N)c(C#N)c34)c(C(F)(F)F)cc12 (atropisomer, axis not shown) [Compound 862] | 5.00 to 6.00 | > 7.00 | 5.00 to 6.00 | 5.00 to 6.00 | > 7.00 | 5.00 to 6.00 | – | –

Other lines, results leading:

pIC50 [1] | pIC50 (GP2d cells (KRAS G12D); GP2d) | pIC50 [2] | pIC50 [3] | pIC50 (SW620 cells (KRAS G12V); [5]) | pIC50 [4] | pIC50 (GP2d cells (KRAS G12D)) | pIC50 (SW620 cells (KRAS G12V); SW620 (KRAS G12V) cells) | SMILES
6.00 to 7.00 | > 7.00 | 6.00 to 7.00 | 6.00 to 7.00 | > 7.00 | 6.00 to 7.00 | – | – | CCN(c1nc(OC[C@@]23CCCN2C[C@H](F)C3)nc2c(F)c(-c3ccc(F)c4sc(N)c(C#N)c34)c(C(F)(F)F)cc12)[C@H]1C[C@H]2[C@@H](C)N(C)C(=O)N2C1 (atropisomer, axis not shown) [Compound 910]
6.00 to 7.00 | > 7.00 | 6.00 to 7.00 | 6.00 to 7.00 | > 7.00 | 6.00 to 7.00 | – | – | CCN(c1nc(OC[C@@]23CCCN2C[C@H](F)C3)nc2c(F)c(-c3ccc(F)c4sc(N)c(C#N)c34)c(C(F)(F)F)cc12)[C@H]1CCN(C(=O)[C@H]2C[C@H](F)C2)C1 (atropisomer, axis not shown) [Compound 846]
6.00 to 7.00 | > 7.00 | 6.00 to 7.00 | 6.00 to 7.00 | > 7.00 | 6.00 to 7.00 | – | – | CCN(c1nc(OC[C@@]23CCCN2C[C@H](F)C3)nc2c(F)c(-c3ccc(F)c4sc(N)c(C#N)c34)c(C(F)(F)F)cc12)[C@H]1CCN(C(=O)[C@@H]2C[C@@H]2F)[C@@H]1C (atropisomer, axis not shown) [Compound 889]
6.00 to 7.00 | > 7.00 | 6.00 to 7.00 | 6.00 to 7.00 | > 7.00 | 6.00 to 7.00 | – | – | CCN(c1nc(OC[C@@]23CCCN2C[C@H](F)C3)nc2c(F)c(-c3ccc(F)c4sc(N)c(C#N)c34)c(C(F)(F)F)cc12)[C@H]1C[C@H](COC)N(C(=O)[C@@H]2C[C@@H]2F)C1 (atropisomer, axis not shown) [Compound 869]
6.00 to 7.00 | > 7.00 | 6.00 to 7.00 | 6.00 to 7.00 | > 7.00 | 6.00 to 7.00 | – | – | CCN(c1nc(OC[C@@]23CCCN2C[C@H](F)C3)nc2c(F)c(-c3ccc(F)c4sc(N)c(C#N)c34)c(C(F)(F)F)cc12)[C@H]1C[C@H]2[C@H](C)OC(=O)N2C1 (atropisomer, axis not shown) [Compound 836]
6.00 to 7.00 | > 7.00 | 6.00 to 7.00 | 6.00 to 7.00 | > 7.00 | 6.00 to 7.00 | – | – | CCN(c1nc(OC[C@@]23CCCN2C[C@H](F)C3)nc2c(F)c(-c3ccc(F)c4sc(N)c(C#N)c34)c(C(F)(F)F)cc12)[C@H]1C[C@H](C)N(C(=O)OC2COC2)C1 (atropisomer, axis not shown) [Compound 926]
5.00 to 6.00 | > 7.00 | 6.00 to 7.00 | 5.00 to 6.00 | > 7.00 | 6.00 to 7.00 | – | – | CCN(c1nc(OC[C@@]23CCCN2C[C@H](F)C3)nc2c(F)c(-c3ccc(F)c4sc(N)c(C#N)c34)c(C(F)(F)F)cc12)[C@H]1C[C@H](COC)N(C(=O)N2CC(F)C2)C1 [Compound 875]
6.00 to 7.00 | > 7.00 | ≥ 7.00 | 6.00 to 7.00 | > 7.00 | 6.00 to 7.00 | – | – | CCN(c1nc(OC[C@@]23CCCN2C[C@H](F)C3)nc2c(F)c(-c3ccc(F)c4sc(N)c(C#N)c34)c(C(F)(F)F)cc12)[C@H]1C[C@H](C)N(C(=O)c2cocn2)C1 (atropisomer, axis not shown) [Compound 914]
6.00 to 7.00 | > 7.00 | ≥ 7.00 | 6.00 to 7.00 | > 7.00 | ≥ 7.00 | – | – | CCN(c1nc(OC[C@@]23CCCN2C[C@H](F)C3)nc2c(F)c(-c3ccc(F)c4sc(N)c(C#N)c34)c(C(F)(F)F)cc12)[C@H]1C[C@H](C)N(C(=O)C2C[C@@H]2F)C1 (stereo partly drawn) [Compound 886]
5.00 to 6.00 | > 7.00 | 5.00 to 6.00 | 5.00 to 6.00 | > 7.00 | 5.00 to 6.00 | – | – | CCN(c1nc(OC[C@@]23CCCN2C[C@H](F)C3)nc2c(F)c(-c3ccc(F)c4sc(N)c(C#N)c34)c(C(F)(F)F)cc12)[C@@H]1CC[C@@H](C(=O)N(C)C)C1 (atropisomer, axis not shown) [Compound 827]
6.00 to 7.00 | > 7.00 | 6.00 to 7.00 | 6.00 to 7.00 | > 7.00 | 6.00 to 7.00 | – | – | CCN(c1nc(OC[C@@]23CCCN2C[C@H](F)C3)nc2c(F)c(-c3ccc(F)c4sc(N)c(C#N)c34)c(C(F)(F)F)cc12)[C@H]1CCN(C(=O)[C@H]2C[C@@H](F)C2)C1 (atropisomer, axis not shown) [Compound 842]

— patent publication US20260042764A1, “COMPOSITIONS AND METHODS FOR INHIBITION OF KRAS” (TheRas, Inc., priority 2022, published 2026)
